In patent US12496327B2, “Methods and compositions for restoring STMN2 levels” (President and Fellows of Harvard College, priority 2019, dated 2025):
Where a SMILES comes first, the peptide text is derived from it. The star is where a group is joined. Cbz = O=C(OCc1ccccc1)*

Columns and labels:
[1] = test system: STMN2 transcripts; test: ASO effect on STMN2 cryptic exon and full length transcripts during TDP-43 depletion; type: cell-based
[2] = test system: hMNs; test: Neurite outgrowth assay (Sholl analysis) of hMNs; type: cell-based, human; settings: STMN2+/+ hMNs, 10 μM
Experimental: Given the reported role of STMN2 in regulating axonal growth by promoting the dynamic instability of microtubules (77), phenotypic assays were carried out characterizing neurite outgrowth in the STMN2−/− hMNs. After 7 days in culture, sorted hMNs were fixed and stained for β-III-tubulin to label the neuronal processes (FIG. 4E).
Individual Tuj1-positive neurons used for Sholl analyses were randomly selected and imaged using a Nikon Eclipse TE300 with a 40× objective. The neurites were traced using the ImageJ (NIH) plugin NeuronJ (78), and Sholl analysis was performed using the Sholl tool of Fiji (96), quantifying the number of intersections at 10-μm intervals from the cell body. Statistical analysis was performed by comparing the number of intersections of KO clones with the parental WT line for each 10-μm interval using Prism 6 (Graph Pad, La Jolla, CA, USA). Significance was assessed by a standard Student's t-test, with a p value of p<0.05 considered as significant.

[3] = test system: proteasome; test: Proteasome activity assay (luciferase substrate) in neurons treated with MG-132; type: cell-based, human
Source text: (§1) N=6 separate wells of neurons. (Unpaired t test, P value <0.05). […] N=triplicate wells. Cells are viable after 1 day of treatment at all the concentrations tested and lower concentrations are tolerated for more extended periods of time. […] N=4 separate wells of neurons (Unpaired t test, P value <0.05).
(§2) A previous study established that proteasome inhibition in hMNs could trigger accumulation of mutant SOD-1 (31). It was, therefore, examined whether MG-132-mediated proteasome inhibition affected TDP-43 localization in hMNs as a potential model of sporadic ALS. First, the range and timing of small molecule treatment that could inhibit the proteasome without inducing overt cellular toxicity was established (FIGS. 14A-14D). […] Then a pulse-chase experiment was performed to determine the consequences of proteasome inhibition on TDP-43 localization (FIG. 5A). […] Thus, proteasome inhibition in hMNs induces a TDP-43 mislocalization that is reversible.

[4] = test system: motor neurons; test: Cell Titer Glo neuronal survival assay; type: cell-based, human
Source text: as §1, §2

[5] = test system: STMN2 mRNA; test: STMN2 mRNA expression in HUES3, IG2 and CN7 cell lines stressed with MG132; type: cell-based, human
Experimental: Three cell lines, HUES3, IG2 (Stmn2 KO), and CN7 (cryptic exon deletion) were treated with normal media or media+1 uM MG132 for 24 hours to stress the cells. In HUES3 cells, the stressed condition had 52% STMN2 mRNA expression compared to the unstressed condition. In IG2 (Stmn2 KO) condition, unstressed cells had 13% expression, and when stressed, expression increased to 42%. […] It was shown that if several exons are knocked out the expression goes down, but if the TDP-43 binding site is removed, expression goes way up.

[6] = test system: STMN2 transcript; test: qRT-PCR analysis of STMN2 expression in hMNs; type: cell-based, human; settings: either a short-term high dose or a long-term low dose, both cases
Experimental: Total RNA was isolated from d10 MNs for RNA-Seq experiments and validation assays using Trizol LS (Invitrogen) according to manufacturer's instructions. 500 μL were added per well of the 24-well cultures. A total of 300-1000 ng of total RNA was used to synthesize cDNA by reverse transcription according to the iSCRIPT kit (Bio-rad). Quantitative RT-PCR (qRT-PCR) was then performed using SYBR green (Bio-Rad) and the iCycler system (Bio-rad). Quantitative levels for all genes assayed were normalized using GAPDH expression. […] All primer sequences are available upon request. For next-generation RNA sequencing (RNA-Seq), at least two technical replicas per siRNA sample or AAVS1-TDP43 genotype were included in the analyses. After RNA extraction, samples with RNA integrity numbers (RIN) above 7.5, determined by a bioAnalyzer, were used for library preparation. In brief, RNA sequencing libraries were generated from ˜250 ng of total RNA using the illumina TruSeq RNA kit v2, according to the manufacturer's directions. Libraries were sequenced at the Harvard Bauer Core Sequencing facility on a HiSeq 2000 platform. All FASTQ files were analyzed using the bcbioRNASeq workflow and toolchain (90). The FASTQ files were aligned to the GRCh37/hg19 reference genome. Differential expression testing was performed using DESeq2 suite of bioinformatics tools (38). […]

[7] = test system: TDP-43; test: TDP-43 localization by immunostaining, Pearson's correlation with DAPI; type: cell-based, human
Experimental: as §2
For immunofluorescence, cells were fixed with ice-cold 4% PFA for 15 minutes at 4° C., permeabilized with 0.2% Triton-X in 1×PBS for 45 minutes and blocked with 10% donkey serum in 1×PBS-T (0.1% Tween-20) for 1 hour. Cells were then incubated overnight at 4° C. with primary antibody (diluted in blocking solution). At least 4 washes (5 min incubation each) with 1×PBS-T were carried out, before incubating the cells with secondary antibodies for 1 hour at room temperature (diluted in blocking solution). Nuclei were stained with DAPI. […] Micrographs were analyzed using FIJI software to determine the correlation coefficient.

[8] = test system: STMN2 cryptic exon; test: RT-PCR detection of STMN2 cryptic exon in hMNs; type: cell-based, human; settings: hMNs treated with proteasome inhibitor
Source text: TDP-43 plays an important role in the nucleus regulating RNA splicing, and recent studies highlight its ability to suppress non-conserved or cryptic exons to maintain intron integrity (80). When cryptic exons are included in RNA transcripts, in many cases, their inclusion can affect normal levels of the gene product by disrupting its translation or by promoting nonsense-mediated decay (80). […] The sequencing data was examined for evidence of cryptic exons in genes observed to be reproducibly regulated by TDP-43 in human cancer cells (81). […] To accomplish this goal, an RT-PCR assay was developed to detect transcripts containing the cryptic exon (FIG. 5F). […] Total RNA was isolated from neurons using RNeasy Mini Kit (Qiagen) according to manufacturer's instructions. A total of 300-1000 ng of total RNA was used to synthesize cDNA by reverse transcription according to the iSCRIPT kit (Bio-rad). RT-PCR was then performed using one cryptic exon-specific primer and then analyzed using the Agilent 2200 Tapestation.

[9] = test system: TDP-43; test: Immunoblot of TDP-43 in detergent-soluble (RIPA) and detergent-insoluble (UREA) fractions; type: cell-based, human
Experimental: To determine what happened to TDP-43 after proteasome inhibition, TDP-43 levels were examined by immunoblot analysis in both the detergent-soluble and detergent-insoluble fractions. […] Finally, STMN2 levels in neurons treated with either a short-term high dose or a long-term low dose of MG-132 were probed.
For analysis of TDP-43 and STMN2 protein expression levels, d10 MNs were lysed in RIPA buffer (150 mM Sodium Chloride; 1% Triton X-100; 0.5% sodium deoxycholate; 0.1% SDS; 50 mM Tris pH 8.0) containing protease and phosphatase inhibitors (Roche) for 20 min on ice, and centrifuged at high speed. 200 μL of RIPA buffer per well of 24-well culture were routinely used, which yielded ˜20 μg of total protein as determined by BCA (Thermo Scientific). After two washes with RIPA buffer, insoluble pellets were resuspended in 200 μl of UREA buffer (Bio-Rad). For immunoblot assays 2-3 μg of total protein were separated by SDS-PAGE (BioRad), transferred to PDVF membranes (BioRad) and probed with antibodies against TDP-43 (1:1000, ProteinTech Group), GAPDH (1:1000, Millipore) and STMN2 (1:3000, Novus). Insoluble pellets were loaded based on protein concentration of correspondent RIPA-soluble counterparts. […] GAPDH levels were used to normalized each sample, and LiCor software was used to quantitate protein band signal.

TCTTCAGTATTGCTATTCAT (2'-MOE nucleotides, further chemistry not given here) [ASO (SEQ ID NO: 11), antisense oligonucleotide targeting the abortive or altered STMN2 RNA]
ability to decrease the abundance of cryptic exon containing transcripts ([1]; 2.5 μM (FIG. 69A)): effectiveness | ability to increase the abundance of full length STMN2 transcripts ([1]; 2.5 μM, during TDP-43 depletion (FIG. 69B)): effectiveness

C[C@@H](N)[C@H]1CC[C@H](C(=O)Nc2ccncc2)CC1 [Y-27632]
neurite outgrowth [2]: enhancing the outgrowth

CC(C)C[C@@H](C=O)NC(=O)[C@H](CC(C)C)NC(=O)[C@H](CC(C)C)NC(=O)OCc1ccccc1 [MG-132] (Cbz-Leu-Leu-Leu-aldehyde)
proteasome activity ([3]; neurons treated with MG-132, N=4 wells (FIG. 14E)): significantly decreased proteasome activity | proteasome activity ([3]; overnight 1 μM treatment of hMNs): less than 10 % of normal activity | cell viability (neuronal survival) ([4]; 1 day of treatment, all concentrations tested (FIG. 14D)): viable | tolerance of neurons to treatment without overt cellular toxicity ([4]; overnight 1 μM treatment): could withstand | STMN2 mRNA expression ([5]; CN7 (Cryptic Exon Deletion) cells, 1 uM for 24 hours (stressed)): 473% | STMN2 mRNA expression ([5]; HUES3 cells, 1 uM for 24 hours, compared to the unstressed condition): 52% | STMN2 mRNA expression ([5]; IG2 (Stmn2 KO) cells, 1 uM for 24 hours (stressed)): 42% | STMN2 mRNA levels [6]: significant decreases | TDP-43 staining following washout ([7]; 4 days after washout of 24 hour 1 μM pulse): indistinguishable to unchallenged neurons | TDP-43 staining in the nucleus ([7]; after 24 hour 1 μM pulse): greatly diminished | transcripts containing the STMN2 cryptic exon (PCR product) [8]: presence of transcripts containing the STMN2 cryptic exon | TDP-43 levels in soluble lysates ([9]; control neurons, low dose, detergent-soluble (RIPA) fraction): significantly decreased | TDP-43 in UREA (insoluble) fraction ([9]; detergent-insoluble fraction): become insoluble

CC(C)C[C@H](NC(=O)[C@H](Cc1ccccc1)NC(=O)c1cnccn1)B(O)O [Bortezomib]
transcripts containing the STMN2 cryptic exon (PCR product) [8]: presence of transcripts containing the STMN2 cryptic exon
